Source: PubChem BioAssay (NCI)
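Compound exposure: 48 hours, 5 concentrations, 96-well plates. At the TGI there is no net growth.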

Assays:
Test in all cases: NCI tumour cell line growth inhibition, 48 h
CAKI-1 renal = system: CAKI-1 renal
RXF-631 renal = system: RXF-631 renal
SN12C renal = system: SN12C renal
NCI-H522 lung = system: NCI-H522 lung
KM20L2 colon = system: KM20L2 colon
SK-OV-3 ovarian = system: SK-OV-3 ovarian
UO-31 renal = system: UO-31 renal
HCT-15 colon = system: HCT-15 colon
RPMI-8226 leukemia = system: RPMI-8226 leukemia
SF-268 CNS = system: SF-268 CNS
HL-60(TB) leukemia = system: HL-60(TB) leukemia
HCT-116 colon = system: HCT-116 colon
RXF 393 renal = system: RXF 393 renal
COLO 205 colon = system: COLO 205 colon
U251 CNS = system: U251 CNS
SF-295 CNS = system: SF-295 CNS
DLD-1 colon = system: DLD-1 colon
HOP-92 NSCLC = system: HOP-92 NSCLC
LXFL 529 NSCLC = system: LXFL 529 NSCLC
OVCAR-8 ovarian = system: OVCAR-8 ovarian
DMS 114 small cell lung = system: DMS 114 small cell lung
SF-539 CNS = system: SF-539 CNS
HT29 colon = system: HT29 colon
NCI-H460 lung = system: NCI-H460 lung
DMS 273 small cell lung = system: DMS 273 small cell lung
SK-MEL-5 melanoma = system: SK-MEL-5 melanoma
SK-MEL-28 melanoma = system: SK-MEL-28 melanoma
MOLT-4 leukemia = system: MOLT-4 leukemia
M19-MEL melanoma = system: M19-MEL melanoma
SNB-19 CNS = system: SNB-19 CNS
ACHN renal = system: ACHN renal
A549 NSCLC = system: A549 NSCLC
M14 melanoma = system: M14 melanoma
A498 renal = system: A498 renal
NCI-H23 lung = system: NCI-H23 lung
HOP-18 NSCLC = system: HOP-18 NSCLC
IGROV1 ovarian = system: IGROV1 ovarian
K-562 leukemia = system: K-562 leukemia
CCRF-CEM leukemia = system: CCRF-CEM leukemia
786-0 renal = system: 786-0 renal
UACC-62 melanoma = system: UACC-62 melanoma
SW-620 colon = system: SW-620 colon
LOX IMVI melanoma = system: LOX IMVI melanoma
HOP-62 NSCLC = system: HOP-62 NSCLC
EKVX NSCLC = system: EKVX NSCLC
TK-10 renal = system: TK-10 renal
UACC-257 melanoma = system: UACC-257 melanoma
NCI-H226 lung = system: NCI-H226 lung
SNB-78 CNS = system: SNB-78 CNS
SR leukemia = system: SR leukemia
OVCAR-5 ovarian = system: OVCAR-5 ovarian
KM12 colon = system: KM12 colon
SNB-75 CNS = system: SNB-75 CNS
MALME-3M melanoma = system: MALME-3M melanoma
OVCAR-3 ovarian = system: OVCAR-3 ovarian
HCC-2998 colon = system: HCC-2998 colon
SK-MEL-2 melanoma = system: SK-MEL-2 melanoma
OVCAR-4 ovarian = system: OVCAR-4 ovarian
XF 498 CNS = system: XF 498 CNS

## Cn1nc(-c2ccccc2)c(C(=O)/C=C/c2ccc(Cl)cc2)c(N2CCOCC2)c1=O
CAKI-1 renal
  TGI: 19.7 µM
RXF-631 renal
  TGI: 23.2 µM
SN12C renal
  TGI: 29.2 µM
NCI-H522 lung
  TGI: 9.46 µM
KM20L2 colon
  TGI: 13.8 µM
SK-OV-3 ovarian
  TGI: 19.7 µM
UO-31 renal
  TGI: 21.7 µM
HCT-15 colon
  TGI: 13.4 µM
RPMI-8226 leukemia
  TGI: 6.74 µM
SF-268 CNS
  TGI: 11.8 µM
HL-60(TB) leukemia
  TGI: 4.38 µM
HCT-116 colon
  TGI: 3.96 µM
RXF 393 renal
  TGI: 6.79 µM
COLO 205 colon
  TGI: 3.79 µM
U251 CNS
  TGI: 12.8 µM
SF-295 CNS
  TGI: 4.79 µM
DLD-1 colon
  TGI: 13.6 µM
HOP-92 NSCLC
  TGI: 9.36 µM
LXFL 529 NSCLC
  TGI: 9.89 µM
OVCAR-8 ovarian
  TGI: 26.2 µM
DMS 114 small cell lung
  TGI: 9.83 µM
SF-539 CNS
  TGI: 7.67 µM
HT29 colon
  TGI: 15.1 µM
NCI-H460 lung
  TGI: 12.2 µM
DMS 273 small cell lung
  TGI: 13.8 µM
SK-MEL-5 melanoma
  TGI: 17.2 µM
SK-MEL-28 melanoma
  TGI: 7.64 µM
MOLT-4 leukemia
  TGI: 4.63 µM
M19-MEL melanoma
  TGI: 20.7 µM
SNB-19 CNS
  TGI: 29.3 µM
ACHN renal
  TGI: 17 µM
A549 NSCLC
  TGI: 23.1 µM
M14 melanoma
  TGI: 15.7 µM
A498 renal
  TGI: 15.8 µM
NCI-H23 lung
  TGI: 8.25 µM
HOP-18 NSCLC
  TGI: 17 µM
IGROV1 ovarian
  TGI: 16.1 µM
K-562 leukemia
  TGI: 9.41 µM
CCRF-CEM leukemia
  TGI: 7.1 µM
786-0 renal
  TGI: 12.3 µM
UACC-62 melanoma
  TGI: 10.7 µM
SW-620 colon
  TGI: 21.5 µM
LOX IMVI melanoma
  TGI: 61.7 µM
HOP-62 NSCLC
  TGI: 33.7 µM
EKVX NSCLC
  TGI: 27.1 µM
TK-10 renal
  TGI: 25.8 µM

## C[C@H]1C(=O)c2c(cc(O)c(C3OC(CO)C(O)C(O)C3O)c2O)OC1c1ccc(O)c(O)c1 (stereo partly specified)
RXF-631 renal
  TGI: > 100 µM
UACC-257 melanoma
  TGI: > 100 µM
NCI-H226 lung
  TGI: 98.9 µM
NCI-H522 lung
  TGI: > 100 µM
SK-OV-3 ovarian
  TGI: > 100 µM
UO-31 renal
  TGI: > 100 µM
HL-60(TB) leukemia
  TGI: > 100 µM
HCT-116 colon
  TGI: > 100 µM
RXF 393 renal
  TGI: > 100 µM
SNB-78 CNS
  TGI: > 100 µM
U251 CNS
  TGI: > 100 µM
SF-295 CNS
  TGI: > 100 µM
HOP-92 NSCLC
  TGI: > 100 µM
OVCAR-8 ovarian
  TGI: > 100 µM
DMS 114 small cell lung
  TGI: > 100 µM
SR leukemia
  TGI: > 100 µM
HT29 colon
  TGI: > 100 µM
NCI-H460 lung
  TGI: > 100 µM
SK-MEL-28 melanoma
  TGI: > 100 µM
MOLT-4 leukemia
  TGI: > 100 µM
M19-MEL melanoma
  TGI: > 100 µM
SNB-19 CNS
  TGI: > 100 µM
ACHN renal
  TGI: > 100 µM
A549 NSCLC
  TGI: > 100 µM
M14 melanoma
  TGI: > 100 µM
A498 renal
  TGI: > 100 µM
NCI-H23 lung
  TGI: > 100 µM
IGROV1 ovarian
  TGI: > 100 µM
CCRF-CEM leukemia
  TGI: > 100 µM
UACC-62 melanoma
  TGI: > 100 µM
OVCAR-5 ovarian
  TGI: > 100 µM
HOP-62 NSCLC
  TGI: > 100 µM
EKVX NSCLC
  TGI: > 100 µM
TK-10 renal
  TGI: > 100 µM
KM12 colon
  TGI: > 100 µM

## CC(C)N(C(=O)C12C3C4C1C1C2C3C41C(=O)N(C(C)C)C(C)C)C(C)C (stereo unspecified)
CAKI-1 renal
  TGI: > 50 µM
RXF-631 renal
  TGI: > 50 µM
UACC-257 melanoma
  TGI: > 50 µM
SN12C renal
  TGI: > 50 µM
NCI-H226 lung
  TGI: > 50 µM
NCI-H522 lung
  TGI: > 50 µM
KM20L2 colon
  TGI: > 50 µM
SNB-75 CNS
  TGI: > 50 µM
SK-OV-3 ovarian
  TGI: > 50 µM
UO-31 renal
  TGI: > 50 µM
HCT-15 colon
  TGI: > 50 µM
RPMI-8226 leukemia
  TGI: > 50 µM
SF-268 CNS
  TGI: > 50 µM
HL-60(TB) leukemia
  TGI: > 50 µM
HCT-116 colon
  TGI: > 50 µM
SNB-78 CNS
  TGI: > 50 µM
COLO 205 colon
  TGI: > 50 µM
U251 CNS
  TGI: > 50 µM
SF-295 CNS
  TGI: > 50 µM
DLD-1 colon
  TGI: > 50 µM
LXFL 529 NSCLC
  TGI: > 50 µM
OVCAR-8 ovarian
  TGI: > 50 µM
DMS 114 small cell lung
  TGI: > 50 µM
SF-539 CNS
  TGI: > 50 µM
HT29 colon
  TGI: > 50 µM
MALME-3M melanoma
  TGI: > 50 µM
NCI-H460 lung
  TGI: > 50 µM
OVCAR-3 ovarian
  TGI: > 50 µM
DMS 273 small cell lung
  TGI: > 50 µM
SK-MEL-5 melanoma
  TGI: > 50 µM
SK-MEL-28 melanoma
  TGI: > 50 µM
MOLT-4 leukemia
  TGI: > 50 µM
M19-MEL melanoma
  TGI: > 50 µM
SNB-19 CNS
  TGI: > 50 µM
ACHN renal
  TGI: > 50 µM
A549 NSCLC
  TGI: > 50 µM
M14 melanoma
  TGI: > 50 µM
A498 renal
  TGI: > 50 µM
NCI-H23 lung
  TGI: > 50 µM
IGROV1 ovarian
  TGI: > 50 µM
K-562 leukemia
  TGI: > 50 µM
CCRF-CEM leukemia
  TGI: > 50 µM
HCC-2998 colon
  TGI: > 50 µM
786-0 renal
  TGI: > 50 µM
UACC-62 melanoma
  TGI: > 50 µM
SK-MEL-2 melanoma
  TGI: > 50 µM
SW-620 colon
  TGI: > 50 µM
OVCAR-5 ovarian
  TGI: > 50 µM
OVCAR-4 ovarian
  TGI: > 50 µM
LOX IMVI melanoma
  TGI: > 50 µM
HOP-62 NSCLC
  TGI: > 50 µM
EKVX NSCLC
  TGI: > 50 µM
TK-10 renal
  TGI: > 50 µM
XF 498 CNS
  TGI: > 50 µM
KM12 colon
  TGI: > 50 µM

## CC1CCC2(C)C(CC=C(C=O)C2(O)C=O)C12CO2 (stereo unspecified)
CAKI-1 renal
  TGI: 11 µM
RXF-631 renal
  TGI: 5.77 µM
UACC-257 melanoma
  TGI: 3.79 µM
SN12C renal
  TGI: 8.59 µM
NCI-H226 lung
  TGI: 4.99 µM
NCI-H522 lung
  TGI: 5.89 µM
KM20L2 colon
  TGI: 6.09 µM
SK-OV-3 ovarian
  TGI: 10.2 µM
UO-31 renal
  TGI: 5.69 µM
HCT-15 colon
  TGI: 5.95 µM
RPMI-8226 leukemia
  TGI: 6.83 µM
SF-268 CNS
  TGI: 18 µM
HL-60(TB) leukemia
  TGI: 2.92 µM
HCT-116 colon
  TGI: 6.65 µM
RXF 393 renal
  TGI: 2.85 µM
SNB-78 CNS
  TGI: 5.46 µM
COLO 205 colon
  TGI: 4.29 µM
U251 CNS
  TGI: 9.37 µM
SF-295 CNS
  TGI: 13.9 µM
HOP-92 NSCLC
  TGI: 5.29 µM
LXFL 529 NSCLC
  TGI: 3.33 µM
OVCAR-8 ovarian
  TGI: 6.69 µM
DMS 114 small cell lung
  TGI: 4.84 µM
SR leukemia
  TGI: 5.33 µM
SF-539 CNS
  TGI: 4.52 µM
HT29 colon
  TGI: 8.03 µM
MALME-3M melanoma
  TGI: 8.74 µM
NCI-H460 lung
  TGI: 7.7 µM
OVCAR-3 ovarian
  TGI: 2.6 µM
DMS 273 small cell lung
  TGI: 7.61 µM
SK-MEL-28 melanoma
  TGI: 3.97 µM
MOLT-4 leukemia
  TGI: 5.83 µM
M19-MEL melanoma
  TGI: 5.75 µM
SNB-19 CNS
  TGI: 22.5 µM
ACHN renal
  TGI: 3.93 µM
A549 NSCLC
  TGI: 26.4 µM
M14 melanoma
  TGI: 6.29 µM
A498 renal
  TGI: 20.1 µM
NCI-H23 lung
  TGI: 5.83 µM
IGROV1 ovarian
  TGI: 7.72 µM
K-562 leukemia
  TGI: 4.67 µM
CCRF-CEM leukemia
  TGI: 4.01 µM
HCC-2998 colon
  TGI: 11.3 µM
786-0 renal
  TGI: 5.83 µM
UACC-62 melanoma
  TGI: 4.02 µM
SK-MEL-2 melanoma
  TGI: 8.53 µM
SW-620 colon
  TGI: 8.77 µM
OVCAR-5 ovarian
  TGI: 8.03 µM
OVCAR-4 ovarian
  TGI: 5.2 µM
LOX IMVI melanoma
  TGI: 7.47 µM
HOP-62 NSCLC
  TGI: 40.3 µM
EKVX NSCLC
  TGI: 23.3 µM
TK-10 renal
  TGI: 5.19 µM
XF 498 CNS
  TGI: 7.21 µM
KM12 colon
  TGI: 11.4 µM
